# Measurements reported in USRE48097E1, “Cephem compounds, their production and use” (priority 2015, dated 2020).
# Where two headings read alike, the source gives them in different places.
# Legend:
# Assay type in all cases: cell-based
# K. pneumoniae 4104 = assay: MIC against K. pneumoniae 4104; conditions: K. pneumoniae 4104, KPC-3, TEM-1
# Protocol: (§1) As shown, the foregoing composition was tested for minimum inhibitory concentration (MIC, μg/mL) against bacteria listed in Tables 2-3.
# E. coli 2666 = assay: MIC against E. coli 2666; conditions: Table 3, E. coli 2666, KPC-2
# Protocol: as §1
# K. pneumoniae 2690 = assay: MIC against K. pneumoniae 2690; conditions: Table 3, K. pneumoniae 2690, KPC-2
# Protocol: as §1
# K. pneumoniae 4107 = assay: MIC against K. pneumoniae 4107; conditions: K. pneumoniae 4107, KPC-2, TEM-1, SHV-11
# Protocol: as §1
# K. pneumoniae 2712 = assay: MIC against K. pneumoniae 2712; conditions: Table 3, K. pneumoniae 2712, KPC-3, VIM-1
# Protocol: as §1
# K. pneumoniae 4106 = assay: MIC against K. pneumoniae 4106; conditions: K. pneumoniae 4106, KPC-3, TEM-1, SHV-12, SHV-141
# Protocol: as §1
# E. cloacae 2706 = assay: MIC against E. cloacae 2706; conditions: Table 3, E. cloacae 2706, VIM-1, KPC-3
# Protocol: as §1
# K. pneumoniae 2711 = assay: MIC against K. pneumoniae 2711; conditions: Table 3, K. pneumoniae 2711, KPC-3, VIM-1
# Protocol: as §1
# K. pneumoniae 2689 = assay: MIC against K. pneumoniae 2689; conditions: K. pneumoniae 2689, KPC-2
# Protocol: as §1
# E. cloacae 2709 = assay: MIC against E. cloacae 2709; conditions: Table 3, E. cloacae 2709, KPC-3, VIM-1
# Protocol: as §1
# E. coli 4103 = assay: MIC against E. coli 4103; conditions: Table 3, E. coli 4103, KPC-2, TEM-1, CMY-type
# Protocol: as §1
# E. cloacae 2705 = assay: MIC against E. cloacae 2705; conditions: Table 3, E. cloacae 2705, VIM-1, KPC-3type
# Protocol: as §1
# E. cloacae 2689 = assay: MIC against E. cloacae 2689; conditions: Table 3, E. cloacae 2689, KPC-2
# Protocol: as §1
# K. pneumoniae 4105 = assay: MIC against K. pneumoniae 4105; conditions: K. pneumoniae 4105, KPC-3, TEM-1, SHV-11
# Protocol: as §1
# K. pneumoniae 2713 = assay: MIC against K. pneumoniae 2713; conditions: Table 3, K. pneumoniae 2713, KPC-3, VIM-1
# Protocol: as §1
# E. cloacae 2710 = assay: MIC against E. cloacae 2710; conditions: Table 3, E. cloacae 2710, KPC-3, VIM-1
# Protocol: as §1
# K. pneumoniae 4108 = assay: MIC against K. pneumoniae 4108; conditions: K. pneumoniae 4108, KPC-3, TEM-166, SHV-12, SHV-141
# Protocol: as §1
# K. pneumoniae 4088 = assay: MIC against K. pneumoniae 4088; conditions: Table 3, K. pneumoniae 4088, KPC-3
# Protocol: as §1
# P. aeruginosa 2686 = assay: MIC against P. aeruginosa 2686; conditions: Table 3, P. aeruginosa 2686, KPC-2
# Protocol: as §1
# [1] = Klebsiella pneumoniae, 4104, Table 3, alone, read-out: MIC
# [2] = Table 3, in combination with NXL-104
# [3] = Escherichia coli, alone, read-out: MIC
# [4] = Klebsiella pneumoniae, alone, read-out: MIC
# [5] = Klebsiella pneumoniae, 4107, Table 3, alone, read-out: MIC
# [6] = Klebsiella pneumoniae, 4106, Table 3, alone, read-out: MIC
# [7] = Enterobacter cloacae, alone, read-out: MIC
# [8] = Klebsiella pneumoniae, 2689, Table 3, alone, read-out: MIC
# [9] = Klebsiella pneumoniae, 4105, Table 3, alone, read-out: MIC
# [10] = Klebsiella pneumoniae, 4108, Table 3, alone, read-out: MIC
# [11] = Pseudomonas aeruginosa, alone, read-out: MIC
MIC (K. pneumoniae 4104; [1]) [µg/mL],MIC (K. pneumoniae 4104; [2]) [µg/mL],MIC (E. coli 2666; [3]) [µg/mL],MIC (E. coli 2666; in combination with NXL-104) [µg/mL],MIC (K. pneumoniae 2690; [4]) [µg/mL],MIC (K. pneumoniae 2690; in combination with NXL-104) [µg/mL],MIC (K. pneumoniae 4107; [5]) [µg/mL],MIC (K. pneumoniae 4107; [2]) [µg/mL],MIC (K. pneumoniae 2712; [4]) [µg/mL],MIC (K. pneumoniae 2712; in combination with NXL-104) [µg/mL],MIC (K. pneumoniae 4106; [6]) [µg/mL],MIC (K. pneumoniae 4106; [2]) [µg/mL],MIC (E. cloacae 2706; [7]) [µg/mL],MIC (E. cloacae 2706; in combination with NXL-104) [µg/mL],MIC (K. pneumoniae 2711; [4]) [µg/mL],MIC (K. pneumoniae 2711; in combination with NXL-104) [µg/mL],MIC (K. pneumoniae 2689; [8]) [µg/mL],MIC (K. pneumoniae 2689; [2]) [µg/mL],MIC (E. cloacae 2709; [7]) [µg/mL],MIC (E. cloacae 2709; in combination with NXL-104) [µg/mL],SMILES,further results
32,1,32,1,32,1,16,2,> 32,4,> 32,4,> 32,32,4,0.5,32,1,32,4,"CO/N=C(\C(=O)N[C@@H]1C(=O)N2C(C(=O)[O-])=C(C[n+]3ccc4c(ccn4Cc4cc(C(=N)Nc5nccs5)cs4)c3)CS[C@H]12)c1nc(N)sc1Cl [Example 14, (6R,7R)-7-{[(2Z)-2-(2-Amino-5-chloro-1,3-thiazol-4-yl)-2-(methoxyimino)acetyl]amino}-8-oxo-3-{[1-({4-[N-(1,3-thiazol-2-yl)carbamimidoyl]thiophen-2-yl}methyl)-1H-pyrrolo[3,2-c]pyridin-5-ium-5-yl]methyl}-5-thia-1-azabicyclo[4.2.0]oct-2-ene-2-carboxylate]",MIC (E. coli 4103; [3]): > 32 µg/mL; MIC (E. coli 4103; in combination with NXL-104): 8 µg/mL; MIC (E. cloacae 2705; [7]): > 32 µg/mL; MIC (E. cloacae 2705; in combination with NXL-104): >32 µg/mL; MIC (E. cloacae 2689; [7]): 16 µg/mL; MIC (E. cloacae 2689; in combination with NXL-104): 0.5 µg/mL; MIC (K. pneumoniae 4105; [9]): > 32 µg/mL; MIC (K. pneumoniae 4105; [2]): 2 µg/mL; MIC (K. pneumoniae 2713; [4]): > 32 µg/mL; MIC (K. pneumoniae 2713; in combination with NXL-104): 2 µg/mL; MIC (E. cloacae 2710; [7]): > 32 µg/mL; MIC (E. cloacae 2710; in combination with NXL-104): >32 µg/mL; MIC (K. pneumoniae 4108; [10]): > 32 µg/mL; MIC (K. pneumoniae 4108; [2]): 2 µg/mL; MIC (K. pneumoniae 4088; [4]): > 32 µg/mL; MIC (K. pneumoniae 4088; in combination with NXL-104): 4 µg/mL; MIC (P. aeruginosa 2686; [11]): > 32 µg/mL; MIC (P. aeruginosa 2686; in combination with NXL-104): 16 µg/mL
16,1,16,1,8,1,16,1,> 32,4,32,2,> 32,>32,4,0.5,16,1,32,4,"CO/N=C(\C(=O)N[C@@H]1C(=O)N2C(C(=O)[O-])=C(C[n+]3ccc4c(ccn4Cc4cc(C(=N)Nc5ccccc5)cs4)c3)CS[C@H]12)c1nc(N)sc1Cl [Example 12, (6R,7R)-7-{[(2Z)-2-(2-Amino-5-chloro-1,3-thiazol-4-yl)-2-(methoxyimino)acetyl]amino}-8-oxo-3-[(1-{[4-(N-phenylcarbamimidoyl)thiophen-2-yl]methyl}-1H-pyrrolo[3,2-c]pyridin-5-ium-5-yl)methyl]-5-thia-1-azabicyclo[4.2.0]oct-2-ene-2-carboxylate]",MIC (E. coli 4103; [3]): > 32 µg/mL; MIC (E. coli 4103; in combination with NXL-104): 4 µg/mL; MIC (E. cloacae 2705; [7]): > 32 µg/mL; MIC (E. cloacae 2705; in combination with NXL-104): >32 µg/mL; MIC (E. cloacae 2689; [7]): 32 µg/mL; MIC (E. cloacae 2689; in combination with NXL-104): 1 µg/mL; MIC (K. pneumoniae 4105; [9]): 32 µg/mL; MIC (K. pneumoniae 4105; [2]): 2 µg/mL; MIC (K. pneumoniae 2713; [4]): > 32 µg/mL; MIC (K. pneumoniae 2713; in combination with NXL-104): 2 µg/mL; MIC (E. cloacae 2710; [7]): > 32 µg/mL; MIC (E. cloacae 2710; in combination with NXL-104): >32 µg/mL; MIC (K. pneumoniae 4108; [10]): 32 µg/mL; MIC (K. pneumoniae 4108; [2]): 1 µg/mL; MIC (K. pneumoniae 4088; [4]): > 32 µg/mL; MIC (K. pneumoniae 4088; in combination with NXL-104): 2 µg/mL; MIC (P. aeruginosa 2686; [11]): 32 µg/mL; MIC (P. aeruginosa 2686; in combination with NXL-104): 32 µg/mL
16,1,32,2,16,2,32,2,> 32,4,32,4,> 32,32,8,1,16,1,8,4,"CC(C)(O/N=C(\C(=O)N[C@@H]1C(=O)N2C(C(=O)[O-])=C(C[n+]3ccc4n(Cc5ccc(C(=N)N)cc5)ccn43)CS[C@H]12)c1csc(N)n1)C(=O)O [Example 4, (6R,7R)-7-{[(2Z)-2-(2-Amino-1,3-thiazol-4-yl)-2-{[(2-carboxypropan-2-yl)oxy]imino}acetyl]amino}-3-{[1-(4-carbamimidoylbenzyl)-1H-imidazo[1,2-b]pyrazol-5-ium-5-yl]methyl}-8-oxo-5-thia-1-azabicyclo[4.2.0]oct-2-ene-2-carboxylate]",MIC (E. coli 4103; [3]): > 32 µg/mL; MIC (E. coli 4103; in combination with NXL-104): 8 µg/mL; MIC (E. cloacae 2705; [7]): > 32 µg/mL; MIC (E. cloacae 2705; in combination with NXL-104): >32 µg/mL; MIC (E. cloacae 2689; [7]): 4 µg/mL; MIC (E. cloacae 2689; in combination with NXL-104): 0.5 µg/mL; MIC (K. pneumoniae 4105; [9]): > 32 µg/mL; MIC (K. pneumoniae 4105; [2]): 2 µg/mL; MIC (K. pneumoniae 2713; [4]): > 32 µg/mL; MIC (K. pneumoniae 2713; in combination with NXL-104): 2 µg/mL; MIC (E. cloacae 2710; [7]): > 32 µg/mL; MIC (E. cloacae 2710; in combination with NXL-104): >32 µg/mL; MIC (K. pneumoniae 4108; [10]): > 32 µg/mL; MIC (K. pneumoniae 4108; [2]): 2 µg/mL; MIC (K. pneumoniae 4088; [4]): > 32 µg/mL; MIC (K. pneumoniae 4088; in combination with NXL-104): 4 µg/mL; MIC (P. aeruginosa 2686; [11]): 32 µg/mL; MIC (P. aeruginosa 2686; in combination with NXL-104): 8 µg/mL
